Experiments:
[1] = tested on: non-resistant type of E. coli; assay: Mass spectrometric (MALDI) protein profile after incubation with antibiotic in liquid nutrient medium, non-resistant strain; type: cell-based, Escherichia coli; details: ampicillin in a liquid nutrient medium allowed to act for two hours, FIG. 2 top
Experimental: (§1) The non-resistant type of E. coli (top) has been destroyed; all protein signals of the mass spectra from FIG. 1 have disappeared.
(§2) The illustrative method starts in step 300 and comprises the following steps: • (a) In step 302, a quantity of microbes under investigation is added to a nutrient medium which also contains a quantity of the antibiotic, • (b) Next, in step 304, the microbes are incubated at a predetermined temperature for a predetermined length of time, preferably not longer than a few hours, • (c) In step 306, the microbes are then removed from the nutrient medium by a suitable means, such as centrifuging, • (d) The microbes are then applied, in step 308, together with a matrix solution to a mass spectrometric sample support and the matrix solution is dried on the sample support to form a sample, • (e) In step 310, a mass spectrum of this sample is acquired, and • (f) Then, in step 312, the acquired mass spectrum is compared with reference mass spectra of these microbes. The process then finishes in step 314.
Infectious microbes are incubated for about two hours at temperatures of between 35° C. and 40° C. in the presence of the antibiotics. This temperature is the optimum one for most infectious microbes because they are generally adapted to a life in mammals. […]

[2] = tested on: E. coli with a resistance to ampicillin due to a plasmid pUC19; assay: Mass spectrometric (MALDI) protein profile after incubation with antibiotic in liquid nutrient medium, resistant strain; type: cell-based, Escherichia coli; details: ampicillin in a liquid nutrient medium allowed to act for two hours, FIG. 2 bottom
Experimental: The mass spectra contain predominantly protein signals of the same mass, with the usual lack of reproducibility of the intensities. They are identified as being identical by suitable computer programs.
as §1, §2
Infectious microbes are incubated for about two hours at temperatures of between 35° C. and 40° C. in the presence of the antibiotics. […]

CC1(C)S[C@@H]2[C@H](NC(=O)[C@H](N)c3ccccc3)C(=O)N2[C@H]1C(=O)O [ampicillin]
effect on microbes / protein signals of the mass spectrum [1]: destroyed
effect on microbes / protein profile of the mass spectrum [2]: protein profile which is sufficiently similar to the two mass spectra in FIG. 1

Reference: US9897613B2, “Mass spectrometric measurement of microbial resistances” (Bruker Daltonik GmbH, priority 2007, dated 2018)
